Values quoted from earlier work as cited in patent EP0706556B1, “CLEANING AND DI[…]” (Henkel-Ecolab GmbH & Co. OHG, priority 1993, dated 1995).

Compound: C=O [Formaldehyd]
- Konzentration, bei der Augenreizungen auftreten können (exposed persons, certain individuals): ≥ 0,4 ppm
- Konzentration, die Lungenödeme verursacht (inhalation, humans): 50 ppm
- Konzentration, die Tränenfluß verursacht (inhalation, humans): ≥ 0,1 ppm
